Patent US11970493B2, “Autotaxin inhibitor compounds” (ILDONG PHARMACEUTICAL CO., LTD., priority 2020, dated 2024)

Legend:
[1] = test system: LPA 18:2 level in rat plasma; experiment: In vitro LPA assay, reduction of LPA 18:2 level in rat plasma (LC-MS/MS); type: biochemical; conditions: 2 hr at 37° C., LPA 18:2 reduction
Description: (§1) Autotaxin (ATX) plays an important role in lysophosphatidic acid (LPA) signaling. An in vitro LPA assay was conducted to determine IC50 values of the test compounds on reduction of LPA 18:2 level in rat or mouse plasma. This example describes the assay data (IC50 value ranges) of exemplary compounds from LPA assays using mouse and rat plasma. Compound GPLG-1690 was assayed as a reference compound.
(§2) The 10 mM DMSO stock solutions of test compounds and 4-fold serial dilutions of the test compounds were prepared at various concentrations. The diluted solutions of the compounds were diluted with 1×PBS (pH 7.5) buffer. 38 μL of rat or mouse plasma samples were mixed with 2 μL of the diluted solutions of the compounds or 2% DMSO solutions in 96-well plate (final 0.1% DMSO). After incubating for 2 hr at 37° C., 120 μL MeOH containing IS (250 ng/mL of LPA 17:0) was added to each well. Mixture was vortexed for 1 min, and then centrifuged for 30 min (4000 rpm, 4° C.). 100 μL supernatant was transferred to a 96-well plate containing 100 μL pure water and the plate was shaken for 10 min. 5 μL supernatant was injected into LC-MS/MS system. No calibration curve will be prepared for LPA 18:2 and all quantifications were performed based on peak area ratios (LPA 18:2/LPA 17:0). For each concentration of compound LPA data were expressed as percentage of reduction (% reduction) using the formula. 100−[((LPA ratio-LPA ratio in control sample after 0 hr incubation)/(LPA ratio in control sample after 2 hr incubation—LPA ratio in control sample after 0 hr incubation))*100]. Data

[2] = Mouse PK study (IV and PO); type: in vivo; conditions: male, C57BL/6, mouse, plasma, male C57BL/6 mice; for AUC(0-inf): IV 2 mg/kg and PO 10 mg/kg study; for bioavailability / Cmax: po, 10 mg/kg; for bioavailability: IV 2 mg/kg and PO 10 mg/kg, read-out: F % (bioavailability); for Cmax: PO group 10 mg/kg
Description: This example describes the pharmacokinetic (PK) data obtained for various compounds of the present disclosure, from studies using mice. The following PK parameters were calculated: • Bioavailability (F %) were calculated using the linear/log trapezoidal rule • Peak plasma concentrations (Cmax (ng/mL)) were taken directly from the plasma concentration vs. time profiles for the PO group • Area under the curve e.g., the area under the concentration curve from time 0 to infinity (AUC0-inf(ng*h/mL)). Experimental Procedures
After intravenous (IV) and oral (PO) administration at 2 mg/kg and 10 mg/kg to male C57BL/6 mice, respectively, the blood samples were collected at the designed sampling time points. All blood samples were transferred into pre-chilled commercial polyethylene microcentrifuge tubes containing K2-EDTA as an anticoagulant. Samples were processed for plasma by centrifugation. Plasma samples was transferred into polypropylene tubes pre-chilled on dry ice and then quickly frozen over dry ice and kept at −70±10° C. until LC-MS/MS analysis. Mice plasma samples were analyzed using qualified bioanalytical methods based on protein precipitation followed by LC-MS/MS analysis. Individual plasma concentration data of each compound was subjected to noncompartmental pharmacokinetic analysis using Phoenix WinNonlin™. Nominal doses were used for pharmacokinetic parameters calculation.

[3] = test system: LPA 18:2 level in mouse plasma; experiment: In vitro LPA assay, reduction of LPA 18:2 level in mouse plasma (LC-MS/MS); type: biochemical; conditions: 2 hr at 37° C., LPA 18:2 reduction
Description: as §1, §2

[4] = target: hATX/ENPP2 (Homo sapiens, UniProt Q13822); experiment: hATX/ENPP2 biochemical assay using 16:0-LPC as substrate (Amplex Red/choline oxidase/HRP fluorescence); conditions: hENPP2 2.5 nM, LPC (16:0) substrate
Procedure, shortened: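 Enzyme preincubated with compounds 15 min at room temperature in 50 mM Tris-HCl pH 8.0, 140 mM NaCl, 5 mM CaCl2, 0.01% Triton X-100. Reaction started with 80 μM LPC (16:0) stock plus Amplex Red/choline oxidase/HRP mix; fluorescence (ex 530/em 590 nm) read kinetically. IC50 from slope between 60 and 70 min.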

Structure (SMILES) | IC50 [1] [nM] | AUC(0-inf) [2] [ng·h/mL] | bioavailability [2] [%] | Cmax [2] [ng/mL] | IC50 [3] [nM] | IC50 [4] [nM]
CCc1nc2ccc(-c3cnc(N4CCN(C(=O)N5CC[C@@H](O)C5)CC4)nc3)cn2c1N(C)c1nc(-c2ccc(F)cc2)c(C#N)s1 [Compound 43, (R)-2-((2-ethyl-6-(2-(4-(3-hydroxypyrrolidine-1-carbonyl)piperazin-1-yl)pyrimidin-5-yl)imidazo[1,2-a]pyridin-3-yl)(methyl)amino)-4-(4-fluorophenyl)thiazole-5-carbonitrile] | ≤ 200 | 31000 | 39.5 | 5170 | ≤ 200 | ≤ 20
CCc1nc2ccc(-c3cnc(N4CCN(C(=O)N5CC[C@H](O)C5)CC4)nc3)cn2c1N(C)c1nc(-c2ccc(F)cc2)c(C#N)s1 [Compound 44, (S)-2-((2-ethyl-6-(2-(4-(3-hydroxypyrrolidine-1-carbonyl)piperazin-1-yl)pyrimidin-5-yl)imidazo[1,2-a]pyridin-3-yl)(methyl)amino)-4-(4-fluorophenvl)thiazole-5-carbonitrile] | 200 to 800 | 25000 | 33.4 | 4730 | 200 to 800 | ≤ 20
CCc1nc2ccc(-c3ccc(N4CCN(C(=O)N5CC[C@@H](O)C5)CC4)nc3)cn2c1N(C)c1nc(-c2ccc(F)cc2)c(C#N)s1 [Compound 92, (R)-2-((2-ethyl-6-(6-(4-(3-hydroxypyrrolidine-1-carbonyl)piperazin-1-yl)pyridin-3-yl)imidazo[1,2-a]pyridin-3-yl)(methyl)amino)-4-(4-fluorophenyl)thiazole-5-carbonitrile] | 200 to 800 | 22800 | 25 | 4260 | ≤ 200 | ≤ 20
CCc1nc2ccc(-c3ccc(N4CCC(C(=O)N5CCCC5)CC4)nc3)cn2c1N(C)c1nc(-c2ccc(F)cc2)c(C#N)s1 [Compound 113, 2-((2-ethyl-6-(6-(4-(pyrrolidine-1-carbonyl)piperidin-1-yl)pyridin-3-yl)imidazo[1,2-a]pyridin-3-yl)(methyl)amino)-4-(4-fluorophenyl)thiazole-5-carbonitrile] | ≤ 200 | 40500 | 44.7 | 6530 | > 800 | ≤ 20
CCc1nc2ccc(-c3ccc(N4CCC(C(=O)N5CC[C@@H](O)C5)CC4)nc3)cn2c1N(C)c1nc(-c2ccc(F)cc2)c(C#N)s1 [Compound 114, (R)-2-((2-ethyl-6-(6-(4-(3-hydroxypyrrolidine-1-carbonyl)piperidin-1-yl)pyridin-3-yl)imidazo[1,2-a]pyridin-3-yl)(methyl)amino)-4-(4-fluorophenyl)thiazole-5-carbonitrile] | 200 to 800 | 38000 | 28.4 | 7040 | 200 to 800 | ≤ 20
CCc1nc2ccc(-c3cnc(N4CCC(C(=O)N5CCCC5)CC4)nc3)cn2c1N(C)c1nc(-c2ccc(F)cc2)c(C#N)s1 [Compound 115, 2-((2-ethyl-6-(2-(4-(pyrrolidine-1-carbonyl)piperidin-1-yl)pyrimidin-5-yl)imidazo [1,2-a]pyridin-3-yl)(methyl)amino)-4-(4-fluorophenyl)thiazole-5-carbonitrile] | ≤ 200 | 37100 | 48.5 | – | 200 to 800 | ≤ 20
CCc1nc2ccc(-c3ccc(N4CCC(C(=O)N5CCC(O)CC5)CC4)nc3)cn2c1N(C)c1nc(-c2ccc(F)cc2)c(C#N)s1 [Compound 119, 2-((2-ethyl-6-(6-(4-(4-hydroxypiperidine-1-carbonyl)piperidin-1-yl)pyridin-3-yl)imidazo[1,2-a]pyridin-3-yl)(methyl)amino)-4-(4-fluorophenyl)thiazole-5-carbonitrile] | 200 to 800 | 57100 | 33.1 | 7680 | 200 to 800 | ≤ 20
CCc1nc2ccc(-c3ccc(N4CCC(C(=O)N5CC(O)C5)CC4)nc3)cn2c1N(C)c1nc(-c2ccc(F)cc2)c(C#N)s1 [Compound 120, 2-((2-ethyl-6-(6-(4-(3-hydroxyazetidine-1-carbonyl)piperidin-1-yl)pyridin-3-yl)imidazo[1,2-a]pyridin-3-yl)(methyl)amino)-4-(4-fluorophenyl) thiazole-5-carbonitrile] | 200 to 800 | 50500 | 40.8 | 8470 | 200 to 800 | ≤ 20
CCc1nc2ccc(-c3cnc(N4CCC(C(=O)N5CCC5)CC4)nc3)cn2c1N(C)c1nc(-c2ccc(F)cc2)c(C#N)s1 [Compound 123, 2-((6-(2-(4-(azetidine-1-carbonyl)piperidin-1-yl)pyrimidin-5-yl)-2-ethylimidazo[1,2-a]pyridin-3-yl)(methyl)amino)-4-(4-fluorophenyl)thiazole-5-carbonitrile] | 200 to 800 | 61000 | 55.7 | 7750 | 200 to 800 | ≤ 20
CCc1nc2ccc(-c3ccc(N4CC(C(=O)N5CCC5)C4)nc3)cn2c1N(C)c1nc(-c2ccc(F)cc2)c(C#N)s1 [Compound 124, 2-((6-(6-(3-(azetidine-1-carbonyl)azetidin-1-yl)pyridin-3-yl)-2-ethylimidazo[1,2-a]pyridin-3-yl)(methyl)amino)-4-(4-fluorophenyl)thiazole-5-carbonitrile] | 200 to 800 | 13100 | 40 | 3820 | 200 to 800 | 20 to 200
CCc1nc2ccc(-c3ccc(N4CCC(C(=O)N5CCOCC5)CC4)nc3)cn2c1N(C)c1nc(-c2ccc(F)cc2)c(C#N)s1 [Compound 126, 2-((2-ethyl-6-(6-(4-(morpholine-4-carbonyl)piperidin-1-yl)pyridin-3-yl)imidazo[1,2-a]pyridin-3-yl)(methyl)amino)-4-(4-fluorophenyl)thiazole-5-carbonitrile] | ≤ 200 | 38300 | 59.2 | 5580 | 200 to 800 | ≤ 20
